What was measured:
[1] = tested on: α-isomaltosylglucosaccharide-forming enzyme; test: Specificity of transfer acceptor (C9 enzyme); format: biochemical, Bacillus globisporus C9 strain; design: key: −: no saccharide-transferred product was detected through transferring reaction to acceptor; ±: a saccharide-transferred product was detected in an amount of less than one percent through transfer reaction to acceptor; +: a saccharide-transferred product was detected in an amount of at least one percent but less than ten percent through transferring reaction to acceptor; ++: a saccharide-transferred product was detected in an amount of at least ten percent through transferring reaction to acceptor; conditions: acceptor 1.6%, PINE-DEX #100 donor 4%, one unit/g donor, 30° C., pH 6.0, 24 hours
Description: (§1) A variety of saccharides were tested whether they could be used as transferring-acceptors for the α-isomaltosylglucosaccharide-forming enzyme. A solution of D-glucose, D-xylose, L-xylose, D-galactose, D-fructose, D-mannose, D-arabinose, D-fucose, L-sorbose, L-rhamnose, methyl-α-glucopyranoside, methyl-β-glucopyranoside, N-acetyl-glucosamine, sorbitol, α,α-trehalose, isomaltose, isomaltotriose, cellobiose, gentibiose, maltitol, lactose, sucrose, α-cyclodextrin, β-cyclodextrin, or γ-cyclodextrin was prepared. […] The reaction mixtures after the enzymatic reactions were analyzed on gas chromatography (abbreviated as “GLC” hereinafter) for monosaccharides and disaccharides as acceptors, and on HPLC for trisaccharides and higher saccharides as acceptors to confirm whether these saccharides could be used as their transfer acceptors. In the case of performing GLC, the following apparatuses and conditions were used: […] In the case of HPLC analysis, the apparatuses and conditions used were: HPLC apparatus, “CCPD” commercialized by Tosoh Corporation, Tokyo, Japan; column, “ODS-AQ-303” commercialized by YMC Co., Ltd., Tokyo, Japan; eluent, water at a flow rate of 0.5 ml/min; and detection, a differential refractometer.

[2] = tested on: α-isomaltosylglucosaccharide-forming enzyme; test: Specificity of transfer acceptor (C11 enzyme); format: biochemical, Bacillus globisporus C11 strain; design: key: −: no saccharide-transferred product was detected through transferring reaction to acceptor; ±: a saccharide-transferred product was detected in an amount of less than one percent through transfer reaction to acceptor; +: a saccharide-transferred product was detected in an amount of at least one percent but less than ten percent through transferring reaction to acceptor; ++: a saccharide-transferred product was detected in an amount of at least ten percent through transferring reaction to acceptor; conditions: acceptor 1.6%, PINE-DEX #100 donor 4%, one unit/g donor, 30° C., pH 6.0, 24 hours
Description: as §1

Row | Structure (SMILES) | Product of saccharide transferring reaction, Enzyme of C9 strain [1] | Product of saccharide transferring reaction, Enzyme of C11 strain [2]
1 | OC[C@H]1O[C@H](OC[C@H]2O[C@H](OC[C@H]3OC(O)[C@H](O)[C@@H](O)[C@@H]3O)[C@H](O)[C@@H](O)[C@@H]2O)[C@H](O)[C@@H](O)[C@@H]1O (some centres unmarked) [Isomaltotriose, isomaltotriose] | ++ (a saccharide-transferred product was detected in an amount of at least ten percent through transferring reaction to acceptor) | ++ (a saccharide-transferred product was detected in an amount of at least ten percent through transferring reaction to acceptor)
2 | OC[C@H]1O[C@@H](O[C@H]2[C@H](O)[C@@H](O)C(O)O[C@@H]2CO)[C@H](O)[C@@H](O)[C@H]1O (some centres unmarked) [Lactose, lactose] | ++ (a saccharide-transferred product was detected in an amount of at least ten percent through transferring reaction to acceptor) | ++ (a saccharide-transferred product was detected in an amount of at least ten percent through transferring reaction to acceptor)
3 | OC[C@H]1O[C@H](OC[C@H]2OC(O)[C@H](O)[C@@H](O)[C@@H]2O)[C@H](O)[C@@H](O)[C@@H]1O (some centres unmarked) [Isomaltose, isomaltose] | ++ (a saccharide-transferred product was detected in an amount of at least ten percent through transferring reaction to acceptor) | ++ (a saccharide-transferred product was detected in an amount of at least ten percent through transferring reaction to acceptor)
4 | OC[C@H]1O[C@@H](OC[C@H]2OC(O)[C@H](O)[C@@H](O)[C@@H]2O)[C@H](O)[C@@H](O)[C@@H]1O (some centres unmarked) [Gentibiose, gentibiose] | ++ (a saccharide-transferred product was detected in an amount of at least ten percent through transferring reaction to acceptor) | ++ (a saccharide-transferred product was detected in an amount of at least ten percent through transferring reaction to acceptor)
5 | OC[C@H]1O[C@@H]2O[C@H]3[C@H](O)[C@@H](O)[C@@H](O[C@H]4[C@H](O)[C@@H](O)[C@@H](O[C@H]5[C@H](O)[C@@H](O)[C@@H](O[C@H]6[C@H](O)[C@@H](O)[C@@H](O[C@H]7[C@H](O)[C@@H](O)[C@@H](O[C@H]1[C@H](O)[C@H]2O)O[C@@H]7CO)O[C@@H]6CO)O[C@@H]5CO)O[C@@H]4CO)O[C@@H]3CO [α-Cyclodextrin, α-cyclodextrin] | − | −
6 | CC(=O)N[C@H]1C(O)O[C@H](CO)[C@@H](O)[C@@H]1O (some centres unmarked) [N-Acetyl-glucosamine, N-acetyl-glucosamine] | + (a saccharide-transferred product was detected in an amount of at least one percent but less than ten percent through transferring reaction to acceptor) | + (a saccharide-transferred product was detected in an amount of at least one percent but less than ten percent through transferring reaction to acceptor)
7 | O=C[C@H](O)[C@@H](O)[C@@H](O)[C@H](O)CO [D-Galactose, D-galactose] | + (a saccharide-transferred product was detected in an amount of at least one percent but less than ten percent through transferring reaction to acceptor) | + (a saccharide-transferred product was detected in an amount of at least one percent but less than ten percent through transferring reaction to acceptor)
8 | O=C[C@@H](O)[C@H](O)[C@H](O)CO [D-Arabinose, D-arabinose] | ± (a saccharide-transferred product was detected in an amount of less than one percent through transfer reaction to acceptor) | ± (a saccharide-transferred product was detected in an amount of less than one percent through transfer reaction to acceptor)
9 | C[C@H](O)[C@H](O)[C@@H](O)[C@@H](O)C=O [L-Rhamnose, L-rhamnose] | − | −
10 | OC[C@H]1O[C@@](CO)(O[C@H]2O[C@H](CO)[C@@H](O)[C@H](O)[C@H]2O)[C@@H](O)[C@@H]1O [Sucrose, sucrose] | ++ (a saccharide-transferred product was detected in an amount of at least ten percent through transferring reaction to acceptor) | ++ (a saccharide-transferred product was detected in an amount of at least ten percent through transferring reaction to acceptor)
11 | CO[C@@H]1O[C@H](CO)[C@@H](O)[C@H](O)[C@H]1O [Methyl-β-glucopyranoside, methyl-β-glucopyranoside] | ++ (a saccharide-transferred product was detected in an amount of at least ten percent through transferring reaction to acceptor) | ++ (a saccharide-transferred product was detected in an amount of at least ten percent through transferring reaction to acceptor)
12 | OC[C@H]1O[C@@H]2O[C@H]3[C@H](O)[C@@H](O)[C@@H](O[C@H]4[C@H](O)[C@@H](O)[C@@H](O[C@H]5[C@H](O)[C@@H](O)[C@@H](O[C@H]6[C@H](O)[C@@H](O)[C@@H](O[C@H]7[C@H](O)[C@@H](O)[C@@H](O[C@H]8[C@H](O)[C@@H](O)[C@@H](O[C@H]1[C@H](O)[C@H]2O)O[C@@H]8CO)O[C@@H]7CO)O[C@@H]6CO)O[C@@H]5CO)O[C@@H]4CO)O[C@@H]3CO [β-Cyclodextrin, β-cyclodextrin] | − | −
13 | CO[C@H]1O[C@H](CO)[C@@H](O)[C@H](O)[C@H]1O [Methyl-α-glucopyranoside, methyl-α-glucopyranoside] | ++ (a saccharide-transferred product was detected in an amount of at least ten percent through transferring reaction to acceptor) | ++ (a saccharide-transferred product was detected in an amount of at least ten percent through transferring reaction to acceptor)
14 | O=C[C@H](O)[C@@H](O)[C@H](O)CO [D-Xylose, D-xylose] | ++ (a saccharide-transferred product was detected in an amount of at least ten percent through transferring reaction to acceptor) | ++ (a saccharide-transferred product was detected in an amount of at least ten percent through transferring reaction to acceptor)
15 | O=C(CO)[C@@H](O)[C@H](O)[C@@H](O)CO [L-Sorbose, L-sorbose] | + (a saccharide-transferred product was detected in an amount of at least one percent but less than ten percent through transferring reaction to acceptor) | + (a saccharide-transferred product was detected in an amount of at least one percent but less than ten percent through transferring reaction to acceptor)
16 | OC[C@@H](O)[C@@H](O)[C@H](O)[C@@H](O)CO [Sorbitol, sorbitol] | − | −
